Source: patent US6841684B2, “Imidiazoles having reduced side effects” (Allergan, Inc., priority 1997, dated 2005)
Like-named read-outs stand apart in the source and are kept apart here. Marks after values point to notes of the source that are not given here.

Key:
[1] = test system: conscious cynomolgus monkeys; test: Cardiovascular side effects (blood pressure, heart rate) after i.v. administration; assay type: in vivo, cynomolgus monkey; conditions: up to 6 hours, + with * = increase from base levels
Source text: Cardiovascular measurements were made in a different group of monkeys using a BP 100S automated sphygmomanometer (Nippon Colin,. Japan).

rats = test: Sedative activity measured using an activity chamber; assay type: in vivo, rat; conditions: for Sedation (%): 30 minutes after dosing; for sedation (in words): intrathecal or intraperitoneal, rats
Source text: (§1) Alleviation of pain including neuropathic pain is another example of a disorder in which the compounds of the invention are useful and advantageous since pain is alleviated without undesirable side effects. […] (See, for example, Kim, S. and Chung, J. “An experimental model for peripheral neuropathy produced by segmental spinal nerve ligation in the rat.” Pain 50 pp. 355-363 (1992).) Following ligation of two spinal nerves, the animals develop a sensitivity to normally non-painful stimuli such as touch. The ability of alpha2 compounds to reverse this sensitivity, called allodynia, was tested 30 minutes after dosing by either intrathecal or intraperitoneal administration. The sedative activity of each compound was also measured using an activity chamber.

[2] = test system: conscious cynomolgus monkeys; test: Sedation score during the IOP experiments; assay type: in vivo, cynomolgus monkey; parameters: key to Sedation (0-4): 0=alert, typical vocalization, movement, etc.; 1=calm, less movement; 2=slightly sedated, some vocalization, responsive to stimulation; 3=sedated, no vocalization, some response to stimulation; 4=asleep; conditions: for sedation (in words): ocular administration, monkeys
Protocol: At the same time, sedation was measured and assessed according to the following score: 0=alert, typical vocalization, movement, etc.; 1=calm, less movement; 2=slightly sedated, some vocalization, responsive to stimulation; 3=sedated, no vocalization, some response to stimulation; 4=asleep.

[3] = test system: cynomolgus monkeys with sustained elevated IOP; test: IOP lowering in conscious monkeys, eyes made hypertensive by argon laser photocoagulation; assay type: in vivo, cynomolgus monkey; conditions: Macaca fascicularis, topical, single 50 μl eye drop, up to 6 hours, read-out: Maximum % Decrease From Pretreatment Levels Hypertensive Eye (IOP); for inhibition in vivo at 0.1 %: ocular dose 0.1%; for inhibition in vivo at 0.3 %: ocular dose 0.3%; for inhibition in vivo at 1 %: ocular dose 1%
Source text: Measurements of IOP were made in fully conscious female cynomolgus monkeys weighing 3-4 kg with sustained elevated IOP that was produced in the right eye by argon laser photocoagulation of the trabecular meshwork. Animals were usable for experiments 2 months following surgery. During the experiments, monkeys sat in specially designed chairs (Primate Products, San Francisco), and were fed orange juice and fruit as needed. A 30R model Digilab pneumatonometer (Alcon, Tex.) was used to measure IOP.
Twenty five μl of an anesthetic (proparacaine) was topically applied to each monkey before IOP measurements to minimize ocular discomfort due to tonometry. Two baseline measurements were made prior to instillation of the drugs, followed by periodic measurements up to 6 hours post-instillation. The test compounds were administered unilaterally as a single 50 μl eye drop; the contralateral eyes received an equal volume of saline.

[4] = test system: rats with ligation of two spinal nerves; test: Spinal nerve ligation model of neuropathic pain, reversal of tactile allodynia; assay type: in vivo, rat; conditions: for Reversal of Tactile Allodynia (%): 30 minutes after dosing
Source text: as §1

[5] = target: T1, rat α2B (RNG gene) receptor (Rattus norvegicus, UniProt P19328); test: RSAT (Receptor Selection and Amplification Technology) assay, alpha 2B; assay type: cell-based; conditions: ratio of maximal effect to that of standard full agonist oxymetazoline
T1 construct: expressed in transfected cells; host or cells: NIH-3T3 cells, calcium phosphate cotransfection
T1 sequence (P19328 1-453): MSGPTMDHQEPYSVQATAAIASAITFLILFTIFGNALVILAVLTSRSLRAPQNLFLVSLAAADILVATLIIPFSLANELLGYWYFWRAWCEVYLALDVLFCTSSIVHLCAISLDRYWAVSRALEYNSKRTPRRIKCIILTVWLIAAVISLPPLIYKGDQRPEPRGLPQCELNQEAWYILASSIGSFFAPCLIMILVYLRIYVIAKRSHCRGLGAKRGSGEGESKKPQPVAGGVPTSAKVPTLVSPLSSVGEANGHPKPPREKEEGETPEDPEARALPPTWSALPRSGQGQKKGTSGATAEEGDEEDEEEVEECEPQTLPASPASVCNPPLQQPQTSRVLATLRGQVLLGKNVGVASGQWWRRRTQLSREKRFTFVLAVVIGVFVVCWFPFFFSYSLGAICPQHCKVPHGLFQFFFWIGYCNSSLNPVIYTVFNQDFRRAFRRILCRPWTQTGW
Method in brief: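 NIH-3T3 cells transiently cotransfected with receptor, hybrid Gq/i5 protein and β-galactosidase marker were incubated with compound dilutions in triplicate for 72-96 hr at 37°. Proliferation was read as β-galactosidase activity (o-nitrophenyl-β-D-galactopyranoside, overnight at 30°, OD 420 nm). EC50 and efficacy were derived, the latter relative to a standard full agonist's maximal effect.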

[6] = test system: rat retinal ganglion cells after optic nerve injury; test: Calibrated rat optic nerve injury model, retinal ganglion cell numbers; assay type: in vivo
Source text: These models include light-induced photoreceptor degeneration in albino rat, as described in Wen et al, “Alpha2-adrenergic agonists induce basic fibroblast growth factor expression in photoreceptors in vivo and ameliorate light damage.” J. Neurosci. […] Invest. Ophthalmol. Vis. Sci. 37, 540,S114. […] Additionally commonly assigned and co-pending application, 08/496,292 filed on 28 Jun.

SMILES | Maximum % Decrease From Pretreatment Levels, Heart Rate ([1]; i.v. 17 μg/kg) [%] | Maximum % Decrease From Pretreatment Levels, Mean Arterial Blood Pressure ([1]; i.v. 17 μg/kg) [%] | Maximum % Decrease From Pretreatment Levels, Heart Rate ([1]; i.v. 50 μg/kg) [%] | Maximum % Decrease From Pretreatment Levels, Mean Arterial Blood Pressure ([1]; i.v. 50 μg/kg) [%] | sedation (in words) (rats) | sedation (in words) [2] | Sedation (0-4) ([2]; ocular dose 0.1%) | Sedation (0-4) ([2]; ocular dose 0.3%) | inhibition in vivo at 0.1 % ([3]; 6 h) [%] | inhibition in vivo at 0.3 % ([3]; 6 h) [%] | Reversal of Tactile Allodynia (%) ([4]; intraperitoneal 3 mg/kg) | Reversal of Tactile Allodynia (%) ([4]; intraperitoneal 30 mg/kg) | Intrinsic Activity Relative to Oxymetazoline, Alpha 2B [5] | Maximum % Decrease From Pretreatment Levels, Heart Rate ([1]; i.v. 500 μg/kg) | Maximum % Decrease From Pretreatment Levels, Mean Arterial Blood Pressure ([1]; i.v. 500 μg/kg) | Sedation (0-4) ([2]; ocular dose 1%) | inhibition in vivo at 1 % [3] [%] | also measured
Brc1c(NC2=NCCN2)ccc2nccnc12 [brimonidine, reference compound] | 52 ± 3 | 36 ± 3 | 54 ± 3 | 37 ± 5 | cause sedation at doses only slightly higher than their anti-allodynic doses | caused sedation | 1 | 2 | 25 ± 3 | 40 ± 4 | 0 | 37* % |  |  |  |  |  | Sedation (%) (rats; intraperitoneal 30 mg/kg): 24%; Sedation (%) (rats; intraperitoneal 300 mg/kg): 67* %
Cl.O=C1c2ccsc2CCC1Cc1c[nH]cn1 (centres unmarked) [Example B-9b, 5-(1H-imidazol-4(5)-ylmethyl)-6,7-dihydro-5H-benzo[b]thiophen-4-one, hydrogen chloride salt] |  |  |  |  |  |  | 0 | 0 | 18.7 ± 5.5 | 26.9 ± 6.1 |  |  | 0.68 | +20.2 ± 3.4* % | 2.8 ± 1.8% |  |  | Retinal Ganglion Cell Numbers at 2 Weeks Post-Injury ([6]; 0.5 mg/kg i.p., vehicle control 33 ± 8): 73 ± 12 cells/microscopic field; neuroprotection (in words) ([6]; calibrated rat optic nerve injury model): neuroprotective
c1nc(Cc2ccsc2)c[nH]1 [Example C-1, 4(5)-thiophen-3-ylmethyl-1H-imidazole] |  |  | 12 ± 4 | 12.8 ± 12 |  |  |  |  |  |  |  |  | 0.83 | +11 ± 9* % | +5 ± 8* % | 0 | 25 ± 4 | Sedation (0-4) ([2]; ocular dose 3%): 0; inhibition in vivo at 3 % ([3]; ocular dose 3%): 29 ± 4%
Clc1cccc(Cl)c1N=C1NCCN1 [clonidine, reference compound] | 32 ± 4 | 29 ± 7 | 50 ± 5 | 35 ± 5 | cause sedation at doses only slightly higher than their anti-allodynic doses | caused sedation | 1 | 2 |  | 41 ± 5 |  |  |  |  |  |  |  | Sedation (%) (rats; intrathecal 1 μg): 15%; Sedation (%) (rats; intrathecal 10 μg): 60* %; Reversal of Tactile Allodynia (%) ([4]; intrathecal 0.1 μg): 20* %; Reversal of Tactile Allodynia (%) ([4]; intrathecal 1 μg): 96* %
Cl.O=C1C2=C(CCCC2)CCC1Cc1c[nH]cn1 (centres unmarked) [Example N-1, 2-(1H-imidazol-4(5)-ylmethyl)-3,4,5,6,7,8-hexahydro-2H-naphthalen-1-one, hydrochloride salt] |  |  |  |  | without causing sedation, even at very high doses |  |  |  |  |  | 3 | 41* % | 0.75 |  |  |  |  | Sedation (%) (rats; intraperitoneal 10,000 mg/kg): 0%; Sedation (%) (rats; intrathecal 30 μg): 0%; Sedation (%) (rats; intrathecal 300 μg): 0%; Reversal of Tactile Allodynia (%) ([4]; intrathecal 3 μg): 13%; Reversal of Tactile Allodynia (%) ([4]; intrathecal 30 μg): 64* %; alleviation of allodynia (in words) ([4]; intrathecal or intraperitoneal, rats): able to alleviate the allodynia
Clc1ccc(Cc2c[nH]cn2)s1 [Example C-4, 4(5)-(5-chlorothiophen-2-ylmethyl)-1H-imidazole] |  |  |  |  |  |  |  | 0 |  |  |  |  | 0.82 | 10.9 ± 3.6% | 5.3 ± 2.9% | 0 | 29.3 ± 4.9 | inhibition in vivo at 0.3 % [3]: 17.7 ± 4%
